Patent US20090074876A1, “PEPTIDE COMPOSITION AND A METHOD OF PROMOTING CARTILAGE FORMATION” (Acologix, Inc., priority 2007, published 2009)
Where a SMILES comes first, the peptide text is derived from it.

Key:
[1] = system: osteochondral defect in goat stifle joint; details: in vivo
Method: In this study, the use of two different concentrations (See Table 1) of AC-100 in conjunction with a collagen sponge and a control with just the collagen sponge was implanted to evaluate the efficacy of AC-100 in repair of bone and cartilage (osteochondral) defects. The implants were intended to serve as an osteochondral allograft for cellular and matrix ingrowth. Efficacy to repair cartilage was assessed using gross and histological examination of the repair tissue. The primary objective was to determine whether AC-100 modifies and/or improves the healing of the osteochondral defect as compared to the study control group and the natural progression of historical controls using this model. This report describes the in vivo, gross and histological findings at the 12 and 24 weeks time points.
A single full-thickness chondral defects were created in the right hind leg stifle joint. The lesion site was located in the anterior medial femoral condyle. The basic surgical procedure was identical for all subjects. All surgeries were performed under strict asepsis. […]
Postoperative checks were made for any animal displaying signs of postoperative discomfort. […] All treatments were recorded in the appropriate study documentation. […]
Animals were humanely sacrificed at Day 84 (12 weeks) or Day 168 (24 weeks) postoperatively. Bodyweights were recorded immediately prior to sacrifice. […]

[2] = system: human mesenchymal stem cells (hMSC); test: proliferation assay with human mesenchymal stem cells, tritiated thymidine incorporation; type: cell-based; details: as compared to the vehicle
Method: The peptide of SEQ ID NO:34 was tested for its proliferation activity on human mesenchymal stem cells as compared to CMP-2 and IGF-1.
The same protocol and positive controls were used in this experiment.
SEQ ID NO:34 was selected for this experiment since the amino acid sequence of this peptide was derived from the corresponding region in rat and mouse MEPE where AC-100 was derived from human MEPE. Furthermore, as compared to all other known mammalian corresponding regions to AC-100, it is the least homologous to AC-100 (the human sequence).

[3] = system: 8 mm diameter defect in the rat parietal bones; test: rat calvaria defect model, bone bridging; type: in vivo; details: collagen sponge in defect, daily s.c. injections for 6 days, 28 days post-surgery, histology qualitative score; vs saline and AC-100
Method: AC-101, 102, and 103 were tested for their defect bridging activities as compared to AC-100.
As a next step, necessity of RGD integrin-binding motif (SEQ ID NO:42) and SGDG glycosaminoglycan attachment motif (SEQ ID NO:43) to the bone formation activities was examined by testing the selected peptides synthesized in EXAMPLE 1 in a rat calvaria defect model. In this model an 8 mm diameter defect is created in the rat parietal bones and a collagen sponge cut to size is inserted into the defect. The test article is soaked into the sponge. Sub-cutaneous injections are administered daily for 6 days post-surgery. After 28 days post-surgery the rats are euthanized and the calvariae collected. The degree of bone bridging was determined by histology analysis using a qualitative scoring system. The tested peptides were SEQ ID NO: 22, 23, and 24, which were also encoded as AC-101, AC-102, and AC-103, respectively.
AC-100 that includes both the RGD integrin-binding motif and the SGDG glycosaminoglycan attachment motif was used as a positive control at the optimal dose.

| Molecule | proliferation activities of the hMSC by tritiated-thymidine incorporation [2] | degree of bone bridging [3] | further results |
| --- | --- | --- | --- |
| CC[C@H](C)[C@H](NC(=O)[C@H](CC(=O)O)NC(=O)[C@H](CC(N)=O)NC(=O)[C@H](CC(=O)O)NC(=O)CNC(=O)[C@H](CCCNC(=N)N)NC(=O)[C@H](CCC(=O)O)NC(=O)[C@H](CCC(N)=O)NC(=O)[C@H](CC(C)C)NC(=O)[C@H](CC(=O)O)NC(=O)[C@@H](N)[C@@H](C)O)C(=O)N[C@@H](CO)C(=O)N1CCC[C@H]1C(=O)N[C@@H](Cc1ccccc1)C(=O)N[C@@H](CO)C(=O)NCC(=O)N[C@@H](CC(=O)O)C(=O)NCC(=O)N[C@@H](CCC(N)=O)C(=O)N1CCC[C@H]1C(=O)N[C@@H](Cc1ccccc1)C(=O)N[C@@H](CCCCN)C(=O)N[C@@H](CC(=O)O)C(N)=O [AC-100] (H-TDLQERGDNDISPFSGDGQPFKD-NH2) | – | – | adverse events [1]: No adverse events were identified; inflammatory response in sections [1]: no evidence of an inflammatory response |
| IGF-1: Insulin-like Growth Factor-1, positive control in hMSC proliferation assay | Significant proliferation activities | – | – |
| PDLLVRGDNDVPPFSGDGQHFMH [SEQ ID NO:34] | Significant proliferation activities | – | – |
| TDLQEDGRNDISPFGDGSQPFKD [AC-103] | – | improved versus saline treatment alone and was comparable to the activity of AC-100 | – |
| TDLQEDGRNDISPFSGDGQPFKD [AC-101] | – | improved versus saline treatment alone and was comparable to the activity of AC-100 | – |
| TDLQERGDNDISPFGDGSQPFKD [AC-102] | – | improved versus saline treatment alone and was comparable to the activity of AC-100 | – |
